US8530477B2, “Tropane urea derivatives, preparation thereof and therapeutic application thereof as modulators of the activity of 11betaHSD1” (Sanofi, priority 2008, dated 2013)

Experiments:
[1] = biological target: T1, 11beta-HSD1 enzyme (Homo sapiens, UniProt P28845); assay: SPA (Scintillation Proximity Assay) of in vitro inhibitory activity on 11beta-HSD1, 384-well format; type: biochemical; conditions: recombinant 11beta-HSD1 produced in yeast S. cerevisiae; 3H-cortisone, NADPH; cortisol formed; read-out: concentration which inhibits 50% of the activity of 11beta-HSD1 (IC50)
T1 construct: made in house; host or cells: Saccharomyces cerevisiae
Method: The compounds according to the invention were the subject of pharmacological assays for determining their inhibitory effect on the 11beta-HSD1 enzyme which is an enzyme involved in lipid metabolism or glucose metabolism.
These assays consisted in measuring the in vitro inhibitory activity of the compounds of the invention by means of an SPA (Scintillation Proximity Assay) in 384-well format. Recombinant 11beta-HSD1 protein was produced in the yeast S. cerevisiae. The reaction was carried out by incubating the enzyme in the presence of ^3H-cortisone and of NADPH, in the absence or presence of an increasing concentration of inhibitor. SPA beads coupled to an anti-mouse antibody, pre-incubated with an anti-cortisol antibody, made it possible to measure the amount of cortisol formed during the course of the reaction.
The inhibitory activity with respect to the 11beta-HSD1 enzyme is given by the concentration which inhibits 50% of the activity of 11beta-HSD1 (IC50).

[2] = biological target: T2, 11βHSD1 (Homo sapiens, UniProt P28845); design: host or cells: elderly human individuals (in vivo); conditions: elderly individuals; cited from earlier work
[3] = biological target: T2, 11βHSD1; design: host or cells: healthy volunteers (in vivo, bone); conditions: healthy volunteers; cited from earlier work
[4] = biological target: T3, 11βHSD1 in the eyes (Homo sapiens, UniProt P28845); conditions: healthy volunteers; after seven days of treatment; cited from earlier work
T3 construct: host or cells: healthy volunteers (in vivo, eye)

[5] = biological target: T2, 11βHSD1; conditions: slim volunteer patients and type 2 diabetics; cited from earlier work

T2 sequence (P28845 whole entry): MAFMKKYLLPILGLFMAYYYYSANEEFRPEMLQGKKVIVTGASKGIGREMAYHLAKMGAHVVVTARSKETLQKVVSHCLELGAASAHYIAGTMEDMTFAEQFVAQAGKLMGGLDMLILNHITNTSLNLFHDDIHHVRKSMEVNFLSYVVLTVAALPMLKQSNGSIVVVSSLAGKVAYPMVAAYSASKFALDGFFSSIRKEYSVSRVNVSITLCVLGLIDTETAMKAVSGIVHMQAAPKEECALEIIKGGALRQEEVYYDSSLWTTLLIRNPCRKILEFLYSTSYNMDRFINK
T1 sequence (P28845 whole entry, species assumed): as the sequence (P28845 whole entry) above
T3 sequence (P28845 whole entry): as above

| Structure (SMILES) | IC50 [1] [nM] | verbal fluidity and verbal memory [2] | bone formation markers [3] | bone resorption markers [3] | IOP (intraocular pressure) reduced by [4] [%] | insulin sensitivity [5] |
| --- | --- | --- | --- | --- | --- | --- |
| CS(=O)(=O)N1CCN(c2ccc(OCC3CC4CCC(C3)N4C(=O)NC3C4CC5CC3CC(O)(C5)C4)cc2)CC1 (stereo not drawn) [Compound No. 17, endo-3-[4-(4-Methanesulfonylpiperazin-1-yl)phenoxymethyl]-8-azabicyclo-[3.2.1]octane-8-carboxylic acid (trans-5-hydroxyadamantan-2-yl)amide] | 4 | – | – | – | – | – |
| CC1(C)[C@@H](OC(=O)CCC(=O)O)CC[C@]2(C)[C@H]3C(=O)C=C4[C@@H]5C[C@@](C)(C(=O)O)CC[C@]5(C)CC[C@@]4(C)[C@]3(C)CC[C@@H]12 [carbenoxolone] | – | improves verbal fluidity and verbal memory | without any change | decrease | 18 | improves insulin sensitivity |
| CS(=O)(=O)N1CCN(c2ccc(OC3CC4CCC(C3)N4C(=O)NC3C4CC5CC3CC(O)(C5)C4)cc2)CC1 (stereo not drawn) [compound 5, exo-3-[4-(4-Methanesulfonylpiperazin-1-yl)phenoxy]-8-azabicyclo-[3.2.1]octane-8-carboxylic acid (trans-5-hydroxyadamantan-2-yl)amide] | 10 | – | – | – | – | – |
